# In PubChem BioAssay AID977612 (Broad Institute, 2014):
# The source made the active and inactive calls.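 Rule for the calls: active = compounds lowering the signal whose fitted AC50 is at most twice their top tested dose; inconclusive = flat fit with 30 to 70% inhibition, or poor fit; inactive = the rest.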
# Target: Drosophila melanogaster bursicon receptor (rickets, LGR2)
# Assay: inhibitors of bursicon-driven CRE reporter signaling – cell-based, HEK293, CRE-luciferase, luminescence, dry powder, dose response (AID 977612)
# Conditions: bursicon-stimulated, antagonist luminescence
row,AC50,Structure (SMILES)
1,> 70 µM (inactive),C[C@@H]1CN([C@@H](C)CO)C(=O)c2cc(NC(=O)C3CCCCC3)ccc2O[C@@H](C)CCCCO[C@H]1CN(C)C(=O)Nc1cccc2ccccc12
2,21.4 µM,C[C@H](CO)N1C[C@H](C)[C@H](CN(C)C(=O)Nc2ccc(F)cc2)OCCCC[C@H](C)Oc2ccc(NC(=O)NC3CCCCC3)cc2C1=O
3,> 70 µM (inactive),C[C@@H]1CCCCO[C@@H](CN(C)C(=O)Nc2cccc3ccccc23)[C@@H](C)CN([C@@H](C)CO)C(=O)c2cc(NC(=O)C3CCCCC3)ccc2O1
4,> 70 µM (inactive),C[C@@H]1CCCCO[C@H](CN(C)C(=O)Nc2cccc3ccccc23)[C@@H](C)CN([C@@H](C)CO)C(=O)c2cc(NC(=O)C3CCCCC3)ccc2O1
5,23.2 µM,C[C@H](CO)N1C[C@H](C)[C@H](CN(C)C(=O)Nc2cccc3ccccc23)OCCCC[C@H](C)Oc2ccc(NC(=O)NC3CCCCC3)cc2C1=O
6,> 70 µM (inactive),C[C@@H]1CN([C@H](C)CO)C(=O)c2cc(NC(=O)C3CCCCC3)ccc2O[C@@H](C)CCCCO[C@@H]1CN(C)C(=O)Nc1cccc2ccccc12
7,20.9 µM,C[C@H](CO)N1C[C@H](C)[C@H](CN(C)C(=O)Nc2ccccc2)OCCCC[C@H](C)Oc2ccc(NC(=O)NC3CCCCC3)cc2C1=O
8,> 70 µM (inactive),C[C@@H]1CN([C@H](C)CO)C(=O)c2cc(NC(=O)C3CCCCC3)ccc2O[C@@H](C)CCCCO[C@H]1CN(C)C(=O)Nc1cccc2ccccc12

# The next lines start with the compound.
row,Structure (SMILES),AC50
1,C[C@H](CO)N1C[C@H](C)[C@H](CN(C)C(=O)Nc2ccccc2)OCCCC[C@H](C)Oc2ccc(NC(=O)CCC(F)(F)F)cc2C1=O,36.3 µM
2,C[C@H](CO)N1C[C@H](C)[C@H](CN(C)C(=O)Nc2ccc3c(c2)OCO3)OCCCC[C@H](C)Oc2ccc(NC(=O)C3CCCCC3)cc2C1=O,10.5 µM
3,COc1ccc(S(=O)(=O)N(C)C[C@@H]2OCCCC[C@H](C)Oc3ccc(NS(=O)(=O)c4ccc(Cl)cc4)cc3C(=O)N([C@@H](C)CO)C[C@@H]2C)cc1,19.1 µM
4,C[C@H]1CCCCO[C@@H](CN(C)C(=O)Nc2ccc(C(F)(F)F)cc2)[C@@H](C)CN([C@@H](C)CO)C(=O)c2cc(NC(=O)CCC(F)(F)F)ccc2O1,31.7 µM
5,C[C@H](CO)N1C[C@H](C)[C@H](CN(C)C(=O)Nc2cccc3ccccc23)OCCCC[C@H](C)Oc2ccc(NC(=O)c3ccccc3)cc2C1=O,22.8 µM
6,C[C@H](CO)N1C[C@H](C)[C@H](CN(C)C(=O)Nc2ccc3c(c2)OCO3)OCCCC[C@H](C)Oc2ccc(NC(=O)NC3CCCCC3)cc2C1=O,31 µM
7,C[C@H](CO)N1C[C@H](C)[C@H](CN(C)C(=O)Nc2cccc3ccccc23)OCCCC[C@H](C)Oc2ccc(NC(=O)CCC(F)(F)F)cc2C1=O,13.1 µM
8,C[C@H]1CCCCO[C@@H](CN(C)C(=O)Nc2ccc(F)cc2)[C@@H](C)CN([C@@H](C)CO)C(=O)c2cc(NC(=O)C3CCCCC3)ccc2O1,11.4 µM
9,C[C@H](CO)N1C[C@H](C)[C@H](CN(C)C(=O)Nc2ccc(F)cc2)OCCCC[C@H](C)Oc2ccc(NC(=O)C3CCCCC3)cc2C1=O,6.2 µM
10,COc1ccc(NC(=O)N(C)C[C@@H]2OCCCC[C@H](C)Oc3ccc(NC(=O)NC4CCCCC4)cc3C(=O)N([C@H](C)CO)C[C@@H]2C)cc1,30.8 µM
11,C[C@H](CO)N1C[C@H](C)[C@H](CN(C)C(=O)Nc2ccccc2)OCCCC[C@H](C)Oc2ccc(NC(=O)C3CCCCC3)cc2C1=O,12.6 µM
12,COc1ccc(NC(=O)N(C)C[C@@H]2OCCCC[C@H](C)Oc3ccc(NC(=O)C4CCCCC4)cc3C(=O)N([C@H](C)CO)C[C@@H]2C)cc1,10.1 µM
13,C[C@H](CO)N1C[C@H](C)[C@H](CN(C)C(=O)Nc2ccc(C(F)(F)F)cc2)OCCCC[C@H](C)Oc2ccc(NC(=O)CCC(F)(F)F)cc2C1=O,15 µM

# Same assay, conditions: bursicon-stimulated, antagonist luminescence, at 35 µM (top of the series)
row,"activity change, negative = inhibition",Structure (SMILES)
1,inactive,C[C@@H]1CCCCO[C@@H](CN(C)C(=O)Nc2cccc3ccccc23)[C@H](C)CN([C@@H](C)CO)C(=O)c2cc(NC(=O)C3CCCCC3)ccc2O1
2,inactive,C[C@@H]1CN([C@@H](C)CO)C(=O)c2cc(NC(=O)C3CCCCC3)ccc2O[C@@H](C)CCCCO[C@@H]1CN(C)C(=O)Nc1cccc2ccccc12
3,inactive,C[C@@H]1CCCCO[C@@H](CN(C)C(=O)Nc2cccc3ccccc23)[C@@H](C)CN([C@H](C)CO)C(=O)c2cc(NC(=O)C3CCCCC3)ccc2O1
4,inactive,C[C@@H]1CCCCO[C@H](CN(C)C(=O)Nc2cccc3ccccc23)[C@H](C)CN([C@H](C)CO)C(=O)c2cc(NC(=O)C3CCCCC3)ccc2O1
5,inactive,C[C@@H]1CCCCO[C@H](CN(C)C(=O)Nc2cccc3ccccc23)[C@H](C)CN([C@@H](C)CO)C(=O)c2cc(NC(=O)C3CCCCC3)ccc2O1
6,inactive,C[C@@H]1CCCCO[C@@H](CN(C)C(=O)Nc2cccc3ccccc23)[C@H](C)CN([C@H](C)CO)C(=O)c2cc(NC(=O)C3CCCCC3)ccc2O1
7,inactive,C[C@H]1CCCCO[C@H](CN(C)C(=O)Nc2cccc3ccccc23)[C@@H](C)CN([C@@H](C)CO)C(=O)c2cc(NC(=O)C3CCCCC3)ccc2O1
8,inactive,C[C@@H]1CCCCO[C@H](CN(C)C(=O)Nc2cccc3ccccc23)[C@@H](C)CN([C@H](C)CO)C(=O)c2cc(NC(=O)C3CCCCC3)ccc2O1
9,inactive,C[C@H](CO)N1C[C@H](C)[C@@H](CN(C)C(=O)Nc2cccc3ccccc23)OCCCC[C@H](C)Oc2ccc(NC(=O)C3CCCCC3)cc2C1=O

# The remaining lines, values behind:
row,Structure (SMILES),"activity change, negative = inhibition"
1,C[C@H](CO)N1C[C@H](C)[C@H](CN(C)C(=O)Nc2ccc(F)cc2)OCCCC[C@H](C)Oc2ccc(NC(=O)C3CCOCC3)cc2C1=O,inactive
2,C[C@H]1CCCCO[C@@H](CN(C)S(=O)(=O)c2ccc(Cl)cc2)[C@@H](C)CN([C@@H](C)CO)C(=O)c2cc(NC(=O)NC3CCCCC3)ccc2O1,inactive
3,CC(=O)Nc1ccc2c(c1)C(=O)N([C@H](C)CO)C[C@H](C)[C@H](CN(C)C(=O)Nc1ccc(F)cc1)OCCCC[C@H](C)O2,inactive
4,CC(C)(C)c1ccc(-c2nc(-c3ccncc3)no2)cc1,inactive
5,C[C@H](CO)N1C[C@H](C)[C@H](CN(C)C(=O)Nc2ccc(F)cc2)OCCCC[C@H](C)Oc2ccc(NC(=O)C3CC3)cc2C1=O,inactive
